# Active and inactive are the calls of the source.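 Rule for the calls: active = compounds giving half or more protection of infected cells from virus-caused growth loss, again on retest; inactive = the rest.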 Where a SMILES comes first, the peptide text is derived from it. [ ]: non-standard residue; d: D form. The star is where a group is joined. Phe(4-NO2) = N[CH](Cc1ccc([N+](=O)[O-])cc1)C(=O)O; Boc = CC(C)(C)OC(=O)*
# Test system: CEM cells HIV-1 protection, formazan growth assay
# Test: NCI AIDS Antiviral Assay
# Conditions: for IC50: measured here: growth of uninfected CEM cells
# How it was run: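 Steps: treat uninfected and HIV-1-infected human CEM cells at five drug levels; quantify growth by soluble formazan; retest any compound reaching 50% protection; classify actives from the retest.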
Compound,EC50,IC50,outcome
NCCCNCCSSCCNCCCN,> 200 µM,10.5 µM,–
CC1(C)OP(=O)(c2ccccc2)C=C1Br (stereo not given),> 200 µM,> 200 µM,–
O=[N+]([O-])c1ccc(C2CC3(c4ccccc4)ON=C(c4ccccc4)N3c3ccccc3S2)cc1 (stereo not given),> 200 µM,102 µM,–
NCCCNCCNCCCN,> 200 µM,> 200 µM,–
N#Cc1nc(C2OC(COC(=O)c3ccccc3)C(OC(=O)c3ccccc3)C2OC(=O)c2ccccc2)oc1N (stereo not given),> 18.2 µM,9.77 µM,–
COC1(OC)CC2C(=O)N(Cc3ccccc3)C1CC2S(=O)(=O)c1ccccc1 (stereo not given),–,–,inactive
COc1ccc2c(c1)OC[C@@H]1c3ccc(OCc4ccccc4)cc3O[C@H]21,46.8 µM,> 200 µM,–
CCCCCCC[CH2][Sn]([CH2]CCCCCCC)([O]c1cccc2cccnc12)[O]c1cccc2cccnc12,> 21.4 µM,> 21.4 µM,–
O=c1cc(SCc2ccccc2Cl)[nH]c(=O)[nH]1,> 115 µM,> 115 µM,–
COc1ccc2c(c1)CCCN1CCc3cc(OC)c(OC)cc3C21 (stereo not given),> 200 µM,> 200 µM,–
COc1cccc(C2c3cc4c(cc3OC3COC(=O)C32)OCO4)c1OC (stereo not given),> 200 µM,120 µM,–
C=C1C(=O)C23C(O)C1CC[C@H]2C12CCCC(C)(C)[C@H]1[C@H](O)[C@]3(O)OC2 (stereo not given in full),> 724 µM,0.339 µM,–
CC12O[C@]3([C@H](C(=O)N4CCOC43C)[C@H]1Cl)[C@H]1O[C@H]12 (stereo not given in full),–,–,inactive
COC(=O)c1ccc([As](=O)(O)O)cc1C(C)=O,> 200 µM,148 µM,–
COC(=O)C1CCC(=O)N1C(c1cc(OC)c(OC)c(OC)c1)c1cccc2ccccc12 (stereo not given),> 200 µM,83.2 µM,–
Cc1c(CCCl)c(Cl)n2c(nc3ccccc32)c1C#N,> 33.9 µM,0.537 µM,–
CCC(OCc1ccccc1)/C(C)=C/CC(C)C=C(Br)Br (stereo not given),> 933 µM,891 µM,–
CCOC(=O)C(/C=N\C(=S)Nc1ccc(OCC)cc1)=C(/O)c1ccccc1,> 200 µM,> 200 µM,–
CC(C)(C)c1ccccc1N1C(=O)c2ccc3c4c(ccc(c24)C1=O)N(c1ccccc1C(C)(C)C)C3=O,> 200 µM,> 200 µM,–
Cc1[nH]c(=O)[nH]c(=O)c1CO,> 200 µM,105 µM,–
CC1(c2ccc3ccccc3c2)OC(=O)c2ccccc21 (stereo not given),–,–,inactive
COc1cc(N(CCC#N)CCC#N)ccc1/C(N=Nc1ccccc1)=N/NC(=O)c1cc(Br)ccc1O,> 100 µM,17.8 µM,–

Compound,EC50,IC50,outcome
N#C/C(=C1\SC(=O)CN1c1ccc(Cl)cc1)c1nc2ccccc2o1,> 200 µM,34.7 µM,–
c1ccc2c(c1)ccc1c2nc2c3ccccc3[nH]n12,0.245 µM,10.7 µM,–
CC(N1CCS(=O)(=O)CC1)P(=O)(O)O (stereo not given),> 200 µM,> 200 µM,–
S=C(NCc1ccccn1)N/N=C/c1ccccn1,> 0.2 µM,0.00794 µM,–
CC(=O)C1(C)CC(C#N)(C#N)C(C#N)=C1N (stereo not given),> 200 µM,> 200 µM,–
CN1c2ccccc2S(=O)(=O)n2c(COc3ccccc3)nnc21,> 200 µM,> 200 µM,–
CC(=O)n1nc(-c2ccc3ccccc3c2)nc1C,> 200 µM,79.4 µM,–
COC1=CC(=O)C(CO)=CC1=O,> 200 µM,7.59 µM,–
CCCc1cc(=O)oc2c3c(c4c(c12)OC(C)(C)[C@H](O)[C@@H]4O)O[C@@H](C)[C@H](C)[C@@H]3O,> 200 µM,87.1 µM,–
CN(C)C1C(=O)C(C(=O)NCNC(CCS(C)=O)C(=O)O)=C(O)C2(O)C(=O)C3=C(O)c4c(O)cccc4C(C)(O)C3CC12 (stereo not given),> 204 µM,> 100 µM,–
COC(=O)C12CC3CC(CC(C(=O)O)(C3)C1)C2,> 759 µM,> 759 µM,–
CCC1SC2=NCCN2C1(O)c1ccc(Cl)cc1 (stereo not given),> 200 µM,102 µM,–
COc1ccc(/C(=N/Nc2nc3ccccc3n2Cc2ccccc2)C(=O)O)cc1,> 200 µM,4.27 µM,–
CN1BN(C)BN(C)B1,> 2040 µM,> 2040 µM,–
N#CCCC(C#N)(C#N)CCC#N,> 759 µM,> 759 µM,–
Nc1c(Br)cc2snc3c2c1C(=O)c1ccccc1-3,> 15.8 µM,8.51 µM,–
CCCC[C@@H](C)/C=C1\CN2CCC[C@H]2[C@@](C)(O)[C@@H]1O,> 200 µM,75.9 µM,–
O=c1c2cc(Br)ccc2[nH]c(=S)n1-c1ccc(Br)cc1,> 45.7 µM,> 45.7 µM,–
Cc1ccc(SCC(CF)OC(C)n2cnc3c(=O)[nH]c(N)nc32)cc1 (stereo not given),> 200 µM,74.1 µM,–
COc1cccc(CN2CCN(/N=C/c3c4c(O)c5c(O)c(C)c6c(c5c3O)C(=O)C(C)(O/C=C/C(OC)C(C)C(OC(C)=O)C(C)C(O)C(C)C(O)C(C)/C=C/C=C(C)C(=O)N4)O6)CC2)c1 (stereo not given),> 200 µM,6.61 µM,–
COC(=O)/C(C#N)=C(/NCc1ccccc1)Nc1ccccc1,> 200 µM,22.4 µM,–
CC(C)CC(NC(=O)C(Cc1cnc[nH]1)NC(=O)C(CC(N)=O)NC(=O)C(NC(=O)C(CO)NC(=O)C(Cc1ccc(O)cc1)NC(=O)C(CO)NC(=O)C(C)NC(=O)C(N)CCCCN)C(C)O)C(=O)O (stereo not given) (H-KASYSTNHL-OH; configuration not given here),> 61.7 µM,> 61.7 µM,–

Compound,EC50,IC50,outcome
CC1=NN(c2ccccc2)C(=O)/C1=C1/C(=O)N(c2ccccc2)N=C1C,> 200 µM,> 200 µM,–
CC(=O)/C(=C(/Br)I)c1ccccc1,–,–,inactive
O=C1c2ccccc2CCC1C(O)(C(F)(F)F)C(F)(F)F (stereo not given),> 200 µM,> 200 µM,–
O=C(Nc1nc(=S)c2c(ncn2CCO)[nH]1)c1ccccc1,> 575 µM,28.2 µM,–
Cn1nc(-c2ccc(Cl)c(Cl)c2)nc2c(=O)n(C)c(=O)nc1-2,> 200 µM,3.8 µM,–
CC1(C)/C(=N\NC(N)=O)C2CCC1C2 (stereo not given),> 200 µM,> 200 µM,–
Nc1nc(N)c2c(n1)C(=O)N(Cc1ccccc1)C2,–,–,inactive
CN1Cc2cc3cc4c(cc3nc2N(C)C1)OCCO4,> 200 µM,162 µM,–
CC(=O)O[C@]1(C(C)=O)CC[C@H]2[C@@H]3C=C(Cl)C4=CC(=O)CC[C@]4(C)[C@H]3CC[C@@]21C,> 200 µM,> 200 µM,–
CCN1CCC(O)(c2ccc(Oc3ccc(F)cc3)cc2)C(C(=O)c2ccc(Oc3ccc(F)cc3)cc2)C1 (stereo not given),> 200 µM,9.33 µM,–
CCCCCCCCCCCCCCCCOC1OC(CCSSC2OC(OCCCCCCCCCCCCCCCC)C(O)C(O)C2O)C(O)C(O)C1O (stereo not given),> 3.24 µM,> 3.24 µM,–
O=C1/C(=C\c2ccccc2)Oc2ccc(Cl)cc21,> 14.5 µM,> 14.5 µM,–
Cc1cc2c(C)nn(Cc3ccccc3)c2c(C(=O)O)c1C,> 123 µM,> 123 µM,–
CCOC(=O)C1=C(Nc2ccc(Br)cc2)OC/C1=N\NC(=O)c1ccccc1O,> 38.9 µM,3.98 µM,–
Cc1ccc(SC/C(=C\CS(=O)(=O)c2ccc(C)cc2)S(=O)(=O)c2ccc(Br)cc2)cc1,–,–,inactive
CC(=S)N=Cc1c(N)[nH]n(-c2ccccc2)c1=O,> 200 µM,> 200 µM,–
CSc1nc(Cl)c2c(n1)Sc1nc3cc4c(cc3n1C2O)OCCO4 (stereo not given),> 0.2 µM,0.0794 µM,–
COc1cc(NCCN=C(N)NC#N)c2ncccc2c1,> 126 µM,89.1 µM,–
O=C(CN1CCOCC1)NC1=Nc2ncccc2C(=O)NN1,> 200 µM,115 µM,–
COc1ccccc1C1(c2c(OC(C)C)c(=O)c2=O)SCCCS1,> 200 µM,138 µM,–
CC1(C)CNC(=O)C(C)(C2(C)NC(C)(C)CNC2=O)N1 (stereo not given),> 200 µM,> 200 µM,–
COC(=O)CNC(=O)CSc1nnc(COc2ccc(Cl)cc2)n1-c1ccccc1,> 200 µM,60.3 µM,–

Compound,EC50,IC50,outcome
O=c1c(-c2ccccc2)c2oc(c1-c1ccccc1)CSCc1cccc(c1)CSC2,> 1.7 µM,> 1.7 µM,–
Cc1nn(C(=O)c2ccc(Cl)cc2)c2c1C(c1ccccc1O)SC(N)=N2 (stereo not given),> 200 µM,107 µM,–
CC(C)CCC[C@@H](C)C1CCC2[C@@H]3CC(OS(=O)(=O)O)C4C[C@@H](O)CC[C@]4(C)C3CC[C@@]21C (stereo not given in full),> 49 µM,> 49 µM,–
O=c1c2ccc(Cl)cc2nc2nc(-c3ccccc3)c3cc(Cl)ccc3n12,> 200 µM,> 100 µM,–
CSCCC(N)C(=O)NCCNc1ccc(NCCNC(=O)C(N)CCSC)c2c1C(=O)c1ccccc1C2=O (stereo not given),> 151 µM,0.219 µM,–
CCC(CO)Nc1nc2c(c(=O)n(C)c(=O)n2C)n1CCO (stereo not given),–,–,inactive
COc1nc2c(nnn2C2OCC(O)C(O)C2O)c(=O)n1C (stereo not given),–,–,inactive
Cc1cc(O)ccc1C1(c2ccc(F)cc2)OC(=O)c2ccccc21 (stereo not given),–,–,inactive
O/N=C1\CC2(N3CCOCC3)CCC1(Cc1ccccc1)CC2,> 100 µM,> 100 µM,–
O=[N+]([O-])/C(Cl)=C(/C(Cl)=C(Cl)Cl)N1CCOCC1,> 200 µM,8.71 µM,–
CN(C)C(=S)Sc1nsc(SC(=S)N(C)C)n1,> 200 µM,> 200 µM,–
O=C1CC(c2ccc(O)cc2)C2(O1)C(=O)OC1C(O)COC12O (stereo not given),–,–,inactive
CCC(C)C(NC(=O)C(CC(C)C)NC(=O)C(N)Cc1c[nH]c2ccccc12)C(=O)NC(Cc1c[nH]c2ccccc12)C(=O)O (stereo not given) (H-WLIW-OH; configuration not given here),> 407 µM,> 407 µM,–
C=CCC1CCN(C=C)C1=O (stereo not given),> 1660 µM,1580 µM,–
N=C(N)SCCCON,> 200 µM,> 200 µM,–
COC(=O)CCC(NC(=O)OC(C)(C)C)C(=O)NC(Cc1ccc([N+](=O)[O-])cc1)C(=O)NC(CCC(=O)OC)C(=O)OC (stereo not given) (Boc-Glu(OMe)-[Phe(4-NO2)]-Glu(OMe)-OMe; configuration not given here),> 100 µM,47.9 µM,–
CCCCCCCCCCCCCCCCCCN1C(=O)c2ccccc2[Se]1=O (stereo not given),> 0.813 µM,> 0.813 µM,–
CCCCCCCCCCCCCCCC(=O)OCC1CCCN2CCCCC12 (stereo not given),> 200 µM,> 200 µM,–
CSc1cc(-c2ccccc2)s[s+]1 (tested in a mixture with another compound),> 200 µM,35.5 µM,–

# — PubChem BioAssay AID179 (DTP/NCI, 2004)
